In the first experiment the target is T1, angiotensin converting enzyme (ACE) (Rattus norvegicus, UniProt P47820).
T1 construct: Drugs were injected intravenously; from tissue; host or cells: whole living animal (anesthetized Sprague-Dawley rat); no enzyme isolated
T1 sequence (P47820 36-1313): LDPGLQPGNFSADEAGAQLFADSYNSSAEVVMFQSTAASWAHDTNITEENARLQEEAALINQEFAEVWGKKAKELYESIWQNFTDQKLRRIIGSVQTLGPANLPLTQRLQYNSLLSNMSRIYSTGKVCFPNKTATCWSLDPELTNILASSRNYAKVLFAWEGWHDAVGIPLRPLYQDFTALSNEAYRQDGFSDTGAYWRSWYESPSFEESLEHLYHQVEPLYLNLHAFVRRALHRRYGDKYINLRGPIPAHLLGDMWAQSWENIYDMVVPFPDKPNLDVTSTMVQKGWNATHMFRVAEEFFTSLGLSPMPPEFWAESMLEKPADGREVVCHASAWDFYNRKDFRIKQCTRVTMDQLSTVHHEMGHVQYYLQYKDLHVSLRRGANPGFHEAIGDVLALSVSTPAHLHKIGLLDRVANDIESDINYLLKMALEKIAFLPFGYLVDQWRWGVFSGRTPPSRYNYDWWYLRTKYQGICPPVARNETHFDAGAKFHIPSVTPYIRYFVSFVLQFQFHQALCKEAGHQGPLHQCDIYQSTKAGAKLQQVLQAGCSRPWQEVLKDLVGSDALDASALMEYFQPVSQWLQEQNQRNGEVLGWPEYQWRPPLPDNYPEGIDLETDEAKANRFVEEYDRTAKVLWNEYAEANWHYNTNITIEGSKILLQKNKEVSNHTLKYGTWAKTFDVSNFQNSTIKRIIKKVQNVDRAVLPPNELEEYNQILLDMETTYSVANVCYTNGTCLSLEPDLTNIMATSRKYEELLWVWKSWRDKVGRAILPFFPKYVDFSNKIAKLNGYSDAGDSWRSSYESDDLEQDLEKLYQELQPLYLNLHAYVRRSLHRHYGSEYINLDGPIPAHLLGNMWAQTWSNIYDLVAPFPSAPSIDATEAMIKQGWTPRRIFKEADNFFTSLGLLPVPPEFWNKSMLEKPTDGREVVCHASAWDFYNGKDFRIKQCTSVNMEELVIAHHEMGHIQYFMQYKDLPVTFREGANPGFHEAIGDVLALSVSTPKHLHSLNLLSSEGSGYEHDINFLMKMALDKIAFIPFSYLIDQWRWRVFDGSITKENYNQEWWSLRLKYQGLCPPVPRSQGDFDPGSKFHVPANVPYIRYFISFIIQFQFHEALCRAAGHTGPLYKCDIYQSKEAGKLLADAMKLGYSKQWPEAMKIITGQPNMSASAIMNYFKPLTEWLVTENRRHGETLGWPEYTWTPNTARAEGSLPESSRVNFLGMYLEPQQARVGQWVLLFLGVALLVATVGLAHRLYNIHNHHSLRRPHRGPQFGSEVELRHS
Put plainly: ACE inhibition in anesthetized rats: inhibition of angiotensin I pressor response after iv test drug. It is filed as in vivo, Sprague-Dawley rats. The note with it: anesthetized Sprague-Dawley rats; drug iv; angiotensin I challenge 5 min after dosing; blood pressure response as percent of control; linear regression.
`C[C@H](N[C@@H](CCc1ccccc1)C(=O)O)C(=O)N1CCC[C@H]1C(=O)O` [enalapril diacid, reference compound]: the ID50 is 15 ± 3 µg/kg.
As to `CCOC(=O)[C@H](CSCc1ccc2ccccc2c1)N[C@H](C)C(=O)N1C2CCCCC2C[C@H]1C(=O)O.Cl` (relative stereo) [Compound 7, 1-[N-[1(R)-Ethoxycarbonyl-2-(2-naphthylmethylthio)ethyl]-(R)alanyl]-cis,syn-perhydroindole-2(S)-carboxylic acid hydrochloride], the ID50 is reported as > 1,000 μg/kg.
The same measure, in the same setting: next, `CCOC(=O)[C@H](CSCc1ccc(C)cc1)NC(C)C(=O)N1C2CCCCC2C[C@H]1C(=O)O` (relative stereo) [4-methylbenzyl-thiomethyl, 1-[N-[1(R)-Ethoxycarbonyl-2-(4-methylbenzylthio)ethyl]-(R,S)-alanyl]-cis,syn-perhydroindole-2(S)-carboxylic acid]: 88 µg/kg; `CCOC(=O)[C@H](CSCCc1ccccc1)N[C@H](C)C(=O)N1[C@H](C(=O)O)C[C@@H]2CCCC[C@@H]21.Cl` (relative stereo) [Compound 9, 1-[N-[1(R)-Ethoxycarbonyl-2-(phenylethylthio)ethyl]-(R)alanyl]-cis,syn-perhydroindole-2(S)-carboxylic acid hydrochloride]: > 1,000 μg/kg.
The same measure, in the same setting: the same measure for `CCOC(=O)[C@H](COCc1ccccc1)NC(C)C(=O)N1CCC[C@H]1C(=O)O.Cl` (stereo partly drawn) [Compound 2, N-(1(S)-Ethoxycarbonyl-2-benzyloxyethyl)-(R,S)-alanyl-(S)-proline hydrochloride]: 130 µg/kg; for `CCOC(=O)[C@H](CSCc1ccccc1)NC(C)C(=O)N1C2CCCCC2C[C@H]1C(=O)O.Cl` (relative stereo) [Compound 3, 1-[N-[1(R)-Ethoxycarbonyl-2-(benzylthio)ethyl]-(R,S)-alanyl]-cis,syn-perhydroindole-2(S)-carboxylic acid, hydrochloride]: 30 µg/kg; for `Br.CCOC(=O)[C@H](CSCc1ccccc1)N[C@H](C)C(=O)N1[C@H](C(=O)O)C[C@@H]2CCCC[C@@H]21` (relative stereo) [Compound 5, 1-[N-[1(R)-Ethoxycarbonyl-2-(benzylthio)ethyl]-(R)-alanyl]-cis,syn-perhydroindole-2(S)-carboxylic acid, hydrobromide]: 350 µg/kg.
Same read-out and setting: the same measure for `CCOC(=O)[C@H](CSCc1ccccc1)NC(C)C(=O)N1CCC[C@H]1C(=O)O.Cl` (stereo partly drawn) [Compound 1, N-(1(R)-Ethoxycarbonyl-2-benzylthioethyl)-(R,S)-alanyl-(S)-proline hydrochloride]: 66 µg/kg; for `CCOC(=O)[C@H](CSCc1ccc2ccccc2c1)N[C@@H](C)C(=O)N1[C@H](C(=O)O)C[C@@H]2CCCC[C@@H]21.Cl` (relative stereo) [Compound 6, 1-[N-[1(R)-Ethoxycarbonyl-2-(2-naphthylmethylthio)ethyl]-(S)-alanyl]-cis,syn-perhydroindole-2(S)-carboxylic acid hydrochloride]: above 100 µg/kg.
`CCOC(=O)[C@H](CSCCc1ccccc1)N[C@@H](C)C(=O)N1C2CCCCC2C[C@H]1C(=O)O.Cl` (relative stereo) [Compound 8, 1-[N-[1(R)-Ethoxycarbonyl-2-(phenylethylthio)ethyl]-(S)alanyl]-cis,syn-perhydroindole-2(S)-carboxylic acid hydrochloride] showed an ID50 of 32 µg/kg.
Consider `CCOC(=O)[C@H](CSCc1ccccc1)N[C@@H](C)C(=O)N1[C@H](C(=O)O)C[C@@H]2CCCC[C@@H]21` (relative stereo) [Compound 4, 1-[N-[1(R)-EthoxYcarbonyl-2-(benzylthio)ethyl]-(S)-alanyl]-cis,syn-perhydroindole-2(S)-carboxylic acid], for which the ID50 was determined as 29 µg/kg.
In the case of `C[C@H](N[C@@H](CCc1ccc(C(=O)O)cc1)C(=O)O)C(=O)N1C2CCCCC2C[C@H]1C(=O)O` (relative stereo) [Compound 10, 1-[N-[1(S)-Carboxy-3-(4-carboxyphenyl)propyl]-(S)-alanyl]-cis,syn-perhydroindole-2(S)-carboxylic acid], the ID50 came to 11 µg/kg.

The same experiment, now with this note: rat, iv, 5 min, read-out: ID50.
For the compound `CCOC(=O)[C@H](CCc1ccccc1)N[C@@H](C)C(=O)N1CCC[C@H]1C(=O)O` [enalapril, reference compound], the ED50 stood at 0.057 ± 0.007 mg/kg.

These data come from patent US4818749A, “Carboxyalkyl dipeptides and medical use thereof in treating hypertension and congestive heart failure” (Schering Corporation, priority 1981, dated 1989).
